Source: patent publication EP0908457B1, “3-(1,2-benzisothiazol- and isoxazol-5-Y1)-2,4(1H,3H)-pyrimidinedione or thione and 3-(1,2-benzisothiazol- and isoxazol-5-y1)-4(3H)-pyrimidinone or thione herbicidal agents” (BASF AKTIENGESELLSCHAFT, priority 1997, dated 1999)

What was measured:
[1] = system: Oryza sativa, (L.) Tebonnet; assay: Rice tolerance to post-transplant applications under flooded paddy conditions (Example 187), ORYSAT (Rice, Tebonnet); details: for ORYSAT: herbicidal effect rating 0-9, three to four weeks after treatment; for herbicidal effect rating, ORYSAT (rice tolerance): rated three to four weeks after treatment
[2] = system: Sagittaria pygmaea, L.; assay: Preemergence weed control under flooded paddy conditions, SAGPY (Arrowhead (Pygmaea)); assay type: in vivo; details: preemergence weeds, flooded paddy; for SAGPY: herbicidal effect rating 0-9, three to four weeks after treatment; for herbicidal effect rating, SAGPY: rated three to four weeks after treatment; for herbicidal effect rating, SAGPY: meaning of each grade not given here
[3] = system: Cyperus iria; assay: Preemergence weed control under flooded paddy conditions, CYPIR (Rice Flatsedge); assay type: in vivo; details: preemergence weeds, flooded paddy; for CYPIR: herbicidal effect rating 0-9, three to four weeks after treatment; for herbicidal effect rating, CYPIR: rated three to four weeks after treatment; for herbicidal effect rating, CYPIR: meaning of each grade not given here
[4] = system: Echinochloa oryzoides (Ard.) Fritsch.; assay: Preemergence weed control under flooded paddy conditions, ECHORC (Watergrass (Calif.)); assay type: in vivo; details: preemergence weeds, flooded paddy; for ECHORC: herbicidal effect rating 0-9, three to four weeks after treatment; for herbicidal effect rating, ECHORC: rated three to four weeks after treatment; for herbicidal effect rating, ECHORC: meaning of each grade not given here
[5] = system: Cyperus serotinus, Rottb.; assay: Preemergence weed control under flooded paddy conditions, CYPSE (Flatsedge); assay type: in vivo; details: preemergence weeds; for CYPSE: herbicidal effect rating 0-9, three to four weeks after treatment; for herbicidal effect rating, CYPSE: rated three to four weeks after treatment; for herbicidal effect rating, CYPSE: meaning of each grade not given here
[6] = system: Monochoria vaginalis, Presl.; assay: Preemergence weed control under flooded paddy conditions, MOOVA (Monochoria); assay type: in vivo; details: preemergence weeds, flooded paddy; for MOOVA: herbicidal effect rating 0-9, three to four weeks after treatment; for herbicidal effect rating, MOOVA: rated three to four weeks after treatment; for herbicidal effect rating, MOOVA: meaning of each grade not given here

CCC(C#N)c1nsc2ccc(-n3c(=O)cc(C(F)(F)F)n(C)c3=O)cc12 (stereo not drawn) [Example 444, 1,2-Benzisothiazole-3-acetonitrile, 5-[3,6-dihydro-3-methyl-2,6-dioxo-4-(trifluoromethyl)-1(2H)-pyrimidinyl]-alpha-ethyl-]
ORYSAT ([1]; 0.0320 kg/ha): 4.5 | ORYSAT ([1]; 0.0620 kg/ha): 6.5 | ORYSAT ([1]; 0.1250 kg/ha): 9.0 | ORYSAT ([1]; 0.2500 kg/ha): 8.5 | SAGPY ([2]; 0.0320 kg/ha): 4.5 | SAGPY ([2]; 0.0620 kg/ha): 6.0 | SAGPY ([2]; 0.1250 kg/ha): 7.0 | SAGPY ([2]; 0.2500 kg/ha): 9.0 | CYPIR ([3]; 0.0320 kg/ha): 7.5 | CYPIR ([3]; 0.0620 kg/ha): 8.0 | CYPIR ([3]; 0.1250 kg/ha): 9.0 | CYPIR ([3]; 0.2500 kg/ha): 9.0 | ECHORC ([4]; 0.0320 kg/ha): 3.5 | ECHORC ([4]; 0.0620 kg/ha): 6.0 | ECHORC ([4]; 0.1250 kg/ha): 8.5 | ECHORC ([4]; 0.2500 kg/ha): 9.0 | CYPSE ([5]; 0.0320 kg/ha): 3.5 | CYPSE ([5]; 0.0620 kg/ha): 9.0 | CYPSE ([5]; 0.1250 kg/ha): 9.0 | CYPSE ([5]; 0.2500 kg/ha): 9.0 | MOOVA ([6]; 0.0320 kg/ha): 8.0 | MOOVA ([6]; 0.0620 kg/ha): 9.0 | MOOVA ([6]; 0.1250 kg/ha): 9.0 | MOOVA ([6]; 0.2500 kg/ha): 9.0

CC(C)SCc1nsc2ccc(-n3c(=O)cc(C(F)(F)F)n(C)c3=O)cc12 [Example 202, 3-{3-[(Isopropylthio)methyl]-1,2-benzisothiazol-5-yl]-1-methyl-6-(trifluoromethyl)-2,4(1H,3H)-pyrimidinedione]
herbicidal effect rating, ORYSAT (rice tolerance) ([1]; 0.0313 kg/ha): 3.0 | herbicidal effect rating, ORYSAT (rice tolerance) ([1]; 0.0625 kg/ha): 4.0 | herbicidal effect rating, ORYSAT (rice tolerance) ([1]; 0.1250 kg/ha): 5.0 | herbicidal effect rating, ORYSAT (rice tolerance) ([1]; 0.2500 kg/ha): 6.0 | herbicidal effect rating, SAGPY ([2]; 0.0313 kg/ha): 0.0 | herbicidal effect rating, SAGPY ([2]; 0.0625 kg/ha): 0.0 | herbicidal effect rating, SAGPY ([2]; 0.1250 kg/ha): 0.0 | herbicidal effect rating, SAGPY ([2]; 0.2500 kg/ha): 0.0 | herbicidal effect rating, CYPIR ([3]; 0.0313 kg/ha): 9.0 | herbicidal effect rating, CYPIR ([3]; 0.0625 kg/ha): 9.0 | herbicidal effect rating, CYPIR ([3]; 0.1250 kg/ha): 9.0 | herbicidal effect rating, CYPIR ([3]; 0.2500 kg/ha): 9.0 | herbicidal effect rating, ECHORC ([4]; 0.0313 kg/ha): 1.0 | herbicidal effect rating, ECHORC ([4]; 0.0625 kg/ha): 1.0 | herbicidal effect rating, ECHORC ([4]; 0.1250 kg/ha): 2.0 | herbicidal effect rating, ECHORC ([4]; 0.2500 kg/ha): 2.0 | herbicidal effect rating, CYPSE ([5]; 0.0313 kg/ha): 0.0 | herbicidal effect rating, CYPSE ([5]; 0.0625 kg/ha): 0.0 | herbicidal effect rating, CYPSE ([5]; 0.1250 kg/ha): 0.0 | herbicidal effect rating, CYPSE ([5]; 0.2500 kg/ha): 0.0 | herbicidal effect rating, MOOVA ([6]; 0.0313 kg/ha): 0.0 | herbicidal effect rating, MOOVA ([6]; 0.0625 kg/ha): 0.0 | herbicidal effect rating, MOOVA ([6]; 0.1250 kg/ha): 0.0 | herbicidal effect rating, MOOVA ([6]; 0.2500 kg/ha): 0.0

Cn1c(C(F)(F)F)cc(=O)n(-c2ccc3snc(C(CCl)CCl)c3c2)c1=O [Example 199, 3-{3-[2-Chloro-1-(chloromethyl)ethyl]-1,2-benzisothiazol-5-yl}-1-methyl-6-(trifluoromethyl)-2,4(1H,3H)-pyrimidinedione]
herbicidal effect rating, ORYSAT (rice tolerance) ([1]; 0.0313 kg/ha): 3.0 | herbicidal effect rating, ORYSAT (rice tolerance) ([1]; 0.0625 kg/ha): 4.0 | herbicidal effect rating, ORYSAT (rice tolerance) ([1]; 0.1250 kg/ha): 6.0 | herbicidal effect rating, ORYSAT (rice tolerance) ([1]; 0.2500 kg/ha): 8.0 | herbicidal effect rating, SAGPY ([2]; 0.0313 kg/ha): 0.0 | herbicidal effect rating, SAGPY ([2]; 0.0625 kg/ha): 0.0 | herbicidal effect rating, SAGPY ([2]; 0.1250 kg/ha): 0.0 | herbicidal effect rating, SAGPY ([2]; 0.2500 kg/ha): 0.0 | herbicidal effect rating, CYPIR ([3]; 0.0313 kg/ha): 0.0 | herbicidal effect rating, CYPIR ([3]; 0.0625 kg/ha): 2.0 | herbicidal effect rating, CYPIR ([3]; 0.1250 kg/ha): 4.0 | herbicidal effect rating, CYPIR ([3]; 0.2500 kg/ha): 8.0 | herbicidal effect rating, ECHORC ([4]; 0.0313 kg/ha): 2.0 | herbicidal effect rating, ECHORC ([4]; 0.0625 kg/ha): 4.0 | herbicidal effect rating, ECHORC ([4]; 0.1250 kg/ha): 7.0 | herbicidal effect rating, ECHORC ([4]; 0.2500 kg/ha): 7.0 | herbicidal effect rating, CYPSE ([5]; 0.0313 kg/ha): 0.0 | herbicidal effect rating, CYPSE ([5]; 0.0625 kg/ha): 0.0 | herbicidal effect rating, CYPSE ([5]; 0.1250 kg/ha): 0.0 | herbicidal effect rating, CYPSE ([5]; 0.2500 kg/ha): 0.0 | herbicidal effect rating, MOOVA ([6]; 0.0313 kg/ha): 8.0 | herbicidal effect rating, MOOVA ([6]; 0.0625 kg/ha): 9.0 | herbicidal effect rating, MOOVA ([6]; 0.1250 kg/ha): 9.0 | herbicidal effect rating, MOOVA ([6]; 0.2500 kg/ha): 9.0
